Key:
[1] = biological target: T1, SNAP-CB2R (Homo sapiens, UniProt P34972); assay: Homogeneous HTRF competition binding in living HEK-293T cells (fluorophore-conjugated CM-157); details: living HEK-293T cells expressing SNAP-CB2R, 20 nM fluorescent ligand
T1 construct: host or cells: HEK-293T, transient transfection (PEI)

[2] = biological target: T2, CB2R in a CB1–CB2 receptor heteromer context (Homo sapiens, UniProt P34972); assay: Homogeneous HTRF competition binding in living HEK-293T cells expressing SNAP-CB2R and CB1R; details: 20 nM fluorescent ligand, read-out: Ki, HTRF competition of fluorophore-conjugated CM-157 in the presence of CB1R
T2 construct: host or cells: HEK-293T, transient co-transfection (PEI)
T2 sequence (P34972 whole entry): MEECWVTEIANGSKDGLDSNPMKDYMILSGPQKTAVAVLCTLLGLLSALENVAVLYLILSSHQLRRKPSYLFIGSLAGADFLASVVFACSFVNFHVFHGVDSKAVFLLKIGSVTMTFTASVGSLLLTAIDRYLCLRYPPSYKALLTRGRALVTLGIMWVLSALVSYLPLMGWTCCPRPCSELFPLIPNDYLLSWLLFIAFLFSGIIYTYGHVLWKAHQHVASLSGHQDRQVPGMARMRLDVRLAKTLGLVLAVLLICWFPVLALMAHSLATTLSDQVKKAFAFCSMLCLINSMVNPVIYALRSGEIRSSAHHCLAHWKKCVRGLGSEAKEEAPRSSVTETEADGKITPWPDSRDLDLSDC
T2 sequence (P21554 whole entry partner): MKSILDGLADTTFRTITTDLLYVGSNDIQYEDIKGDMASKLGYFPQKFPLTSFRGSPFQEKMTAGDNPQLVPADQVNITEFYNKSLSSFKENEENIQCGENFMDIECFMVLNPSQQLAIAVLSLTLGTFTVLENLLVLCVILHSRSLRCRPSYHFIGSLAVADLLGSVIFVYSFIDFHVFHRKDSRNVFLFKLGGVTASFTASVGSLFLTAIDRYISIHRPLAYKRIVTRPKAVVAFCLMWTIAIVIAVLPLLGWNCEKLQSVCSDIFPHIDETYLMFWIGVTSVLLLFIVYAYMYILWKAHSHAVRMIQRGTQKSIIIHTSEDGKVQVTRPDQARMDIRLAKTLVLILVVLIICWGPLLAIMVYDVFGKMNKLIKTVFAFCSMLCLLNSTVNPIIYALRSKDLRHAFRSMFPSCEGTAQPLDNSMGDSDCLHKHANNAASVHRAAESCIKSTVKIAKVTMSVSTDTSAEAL

[3] = biological target: T1, SNAP-CB2R; design: method as in Martínez-Pinilla et al., 2016; details: HTRF binding to CB2R; ref Martínez-Pinilla et al., 2016; read-out: KD used in the Cheng and Prusoff equation for homogeneous binding; cited from earlier work

T1 sequence (P34972 whole entry): as the sequence (P34972 whole entry) above

CC(C)(C)c1nc2cc(S(=O)(=O)c3ccnc(OCCCN)c3)ccc2n1CC1CCOCC1 [CM-157, 3-[[4-[2-tert-butyl-1-(tetrahydropyran-4-ylmethyl)benzimidazol-5-yl]sulfonyl-2-pyridyl]oxy]propan-1-amine, reference compound]
Ki [1]: 16 nM
Ki [2]: 19 nM
Kd [3]: 21 nM
